The record followed here is ChEMBL document CHEMBL1909046, “DrugMatrix in vitro pharmacology data”.

Assay [1] concerns the target T1, Thromboxane-A synthase (Homo sapiens, UniProt P24557).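 Also: enzyme inhibition assay with PGH2 supplied as substrate; in other assays of this panel Not Active means under 50% inhibition at 10 µM.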
T1 sequence (P24557 whole entry): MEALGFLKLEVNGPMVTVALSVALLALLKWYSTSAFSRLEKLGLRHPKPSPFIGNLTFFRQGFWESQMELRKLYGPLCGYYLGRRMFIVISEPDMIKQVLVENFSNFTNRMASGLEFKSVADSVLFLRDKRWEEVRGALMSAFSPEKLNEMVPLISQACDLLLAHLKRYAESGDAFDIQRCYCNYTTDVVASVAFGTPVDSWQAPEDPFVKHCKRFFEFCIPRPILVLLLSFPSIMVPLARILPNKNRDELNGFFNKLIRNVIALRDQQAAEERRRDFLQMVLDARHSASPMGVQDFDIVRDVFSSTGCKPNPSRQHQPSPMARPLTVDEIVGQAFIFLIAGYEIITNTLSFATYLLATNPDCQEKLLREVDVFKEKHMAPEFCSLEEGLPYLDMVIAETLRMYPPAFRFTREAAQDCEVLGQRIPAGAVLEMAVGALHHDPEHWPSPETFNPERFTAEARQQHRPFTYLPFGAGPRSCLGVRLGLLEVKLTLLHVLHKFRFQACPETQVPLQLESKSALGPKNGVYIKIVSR
In words: biochemical. The format is tissue-based, Platelet.

Assay [2] can be described thus: DRUGMATRIX: Sodium/nucleoside co-transporter radioligand binding (ligand: nitrobenzylthioinosine). The format is cell membranes, Cavia porcellus, Dunkin-Hartley, Cerebral cortex, Membrane. Particulars: Not Active = under 50% inhibition at 10 µM.
Assay [3] has as its target 5-hydroxytryptamine receptor 6 (Homo sapiens, UniProt P50406). The format is cell membranes, HeLa, Membrane. Also: in other assays of this panel Not Active means under 50% inhibition at 10 µM.
Assay [4] concerns the target Substance-P receptor (Homo sapiens, UniProt P25103). The format is cell membranes, Membrane. The following applies: cho. Also: in other assays of this panel Not Active means under 50% inhibition at 10 µM.
For assay [5], the target named is Epidermal growth factor receptor (Homo sapiens, UniProt P00533). In words: DRUGMATRIX: Protein Tyrosine Kinase, EGF Receptor enzyme inhibition (substrate: Poly(Glu:Tyr)). The format is cell-based, Insect cells. The following applies: Not Active = under 50% inhibition at 10 µM.
The target in assay [6] is Aldo-keto reductase family 1 member B1 (Rattus norvegicus, UniProt P07943). The assay can be described thus: biochemical. The format is tissue-based, Lens of camera-type eye.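 Also: inhibition of aldose reductase enzyme activity, measured with DL-glyceraldehyde as the substrate; in other assays of this panel Not Active means under 50% inhibition at 10 µM.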

Structures are written as SMILES.

Sequence of 5-hydroxytryptamine receptor 6 (P50406 whole entry): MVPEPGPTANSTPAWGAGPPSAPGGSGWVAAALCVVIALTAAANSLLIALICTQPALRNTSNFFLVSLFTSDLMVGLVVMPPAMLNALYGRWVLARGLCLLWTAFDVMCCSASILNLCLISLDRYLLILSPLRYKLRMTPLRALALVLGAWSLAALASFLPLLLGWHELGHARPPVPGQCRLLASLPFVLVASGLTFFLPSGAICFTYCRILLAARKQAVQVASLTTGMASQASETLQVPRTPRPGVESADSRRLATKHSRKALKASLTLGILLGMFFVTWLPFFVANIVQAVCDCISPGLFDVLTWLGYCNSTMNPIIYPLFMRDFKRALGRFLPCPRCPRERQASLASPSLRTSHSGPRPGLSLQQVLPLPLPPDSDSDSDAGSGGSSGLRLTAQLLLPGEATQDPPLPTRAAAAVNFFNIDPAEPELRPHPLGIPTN
Sequence of Epidermal growth factor receptor (P00533 whole entry): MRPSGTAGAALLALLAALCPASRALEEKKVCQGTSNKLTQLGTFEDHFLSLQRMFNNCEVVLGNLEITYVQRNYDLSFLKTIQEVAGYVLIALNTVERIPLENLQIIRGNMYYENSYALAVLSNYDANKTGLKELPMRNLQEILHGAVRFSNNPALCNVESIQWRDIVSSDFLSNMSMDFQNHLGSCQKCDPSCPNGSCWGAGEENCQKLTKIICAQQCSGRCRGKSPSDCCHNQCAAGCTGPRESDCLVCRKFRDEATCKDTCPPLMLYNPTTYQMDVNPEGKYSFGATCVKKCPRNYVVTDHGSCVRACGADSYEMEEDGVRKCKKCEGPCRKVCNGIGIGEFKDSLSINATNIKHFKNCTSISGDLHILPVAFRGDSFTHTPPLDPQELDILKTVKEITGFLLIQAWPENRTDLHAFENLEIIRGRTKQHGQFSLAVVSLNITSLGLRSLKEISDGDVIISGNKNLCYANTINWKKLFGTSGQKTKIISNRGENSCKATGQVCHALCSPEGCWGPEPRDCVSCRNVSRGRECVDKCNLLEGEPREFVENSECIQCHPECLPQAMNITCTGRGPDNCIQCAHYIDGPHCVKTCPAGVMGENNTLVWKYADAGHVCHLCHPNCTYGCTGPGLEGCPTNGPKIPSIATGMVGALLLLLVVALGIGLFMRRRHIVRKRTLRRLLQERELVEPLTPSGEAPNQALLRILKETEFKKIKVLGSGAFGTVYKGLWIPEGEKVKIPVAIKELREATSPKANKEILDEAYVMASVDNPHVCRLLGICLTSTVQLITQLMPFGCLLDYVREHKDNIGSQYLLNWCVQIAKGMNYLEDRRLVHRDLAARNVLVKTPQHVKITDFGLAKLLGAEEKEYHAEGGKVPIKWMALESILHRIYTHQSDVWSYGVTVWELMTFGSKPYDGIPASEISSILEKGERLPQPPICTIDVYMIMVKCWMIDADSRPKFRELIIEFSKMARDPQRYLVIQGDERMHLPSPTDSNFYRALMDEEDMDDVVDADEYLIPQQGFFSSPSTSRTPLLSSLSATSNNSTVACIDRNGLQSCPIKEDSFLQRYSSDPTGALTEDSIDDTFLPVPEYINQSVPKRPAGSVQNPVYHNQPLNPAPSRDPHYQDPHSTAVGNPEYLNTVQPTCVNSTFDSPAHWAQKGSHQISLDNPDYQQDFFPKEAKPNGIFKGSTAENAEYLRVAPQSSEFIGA
Sequence of Substance-P receptor (P25103 whole entry): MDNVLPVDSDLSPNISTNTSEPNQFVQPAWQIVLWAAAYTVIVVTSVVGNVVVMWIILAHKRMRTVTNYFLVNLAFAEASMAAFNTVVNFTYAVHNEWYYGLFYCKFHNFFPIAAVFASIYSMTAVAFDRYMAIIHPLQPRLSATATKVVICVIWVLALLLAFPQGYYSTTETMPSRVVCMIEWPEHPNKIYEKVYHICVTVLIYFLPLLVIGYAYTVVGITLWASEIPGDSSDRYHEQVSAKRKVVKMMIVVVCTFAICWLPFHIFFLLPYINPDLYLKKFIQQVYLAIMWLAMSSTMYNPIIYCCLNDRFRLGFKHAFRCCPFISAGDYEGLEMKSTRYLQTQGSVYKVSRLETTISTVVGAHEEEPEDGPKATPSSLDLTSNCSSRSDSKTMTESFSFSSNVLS

With `CC(C)NCC(O)COc1ccc(CC(N)=O)cc1` (configuration not stated) [ATENOLOL], the IC50 result in assay [1] (platelet), in assay [2], in assay [3] (hela), in assay [4], in assay [5] (insect cells) and in assay [6] was “Not Active” each time. In assay [2], the Ki entry is listed as “Not Active”.

As for `OC[C@H]1O[C@@H]2O[C@H]3[C@H](O)[C@@H](O)[C@@H](O[C@H]4[C@H](O)[C@@H](O)[C@@H](O[C@H]5[C@H](O)[C@@H](O)[C@@H](O[C@H]6[C@H](O)[C@@H](O)[C@@H](O[C@H]7[C@H](O)[C@@H](O)[C@@H](O[C@H]1[C@H](O)[C@H]2O)O[C@@H]7CO)O[C@@H]6CO)O[C@@H]5CO)O[C@@H]4CO)O[C@@H]3CO` [ALFADEX], the IC50 entry in assay [1] (platelet), in assay [2], in assay [3] (hela), in assay [4], in assay [5] (insect cells) and in assay [6] was “Not Active” each time. Also, in assay [2], the Ki result is “Not Active”.

For `CC(=O)Nc1ccc2c(c1)Cc1ccccc1-2` [2-ACETYLAMINOFLUORENE], the IC50 result in assay [1] (platelet), in assay [2], in assay [3] (hela), in assay [4], in assay [5] (insect cells) and in assay [6] was “Not Active” each time. Further, in assay [2], the Ki result was “Not Active”.

For `CCN1CCN(c2cc3c(cc2F)c(=O)c(C(=O)O)cn3C2CC2)CC1` [ENROFLOXACIN], the IC50 result in assay [1] (platelet), in assay [2], in assay [3] (hela), in assay [4], in assay [5] (insect cells) and in assay [6] was “Not Active” throughout. The Ki result in assay [2] is reported as “Not Active”.

Take `O=C(O)CO` [GLYCOLIC ACID]: the IC50 entry in assay [1] (platelet), in assay [2], in assay [3] (hela), in assay [4], in assay [5] (insect cells) and in assay [6] was “Not Active” throughout. Moreover, in assay [2], the Ki result is reported as “Not Active”.

Regarding `CN(Cc1cc(Br)cc(Br)c1N)C1CCCCC1` [BROMHEXINE], the IC50 result in assay [1] (platelet), in assay [2], in assay [3] (hela), in assay [4], in assay [5] (insect cells) and in assay [6] was “Not Active” throughout. The Ki result in assay [2] is on record as “Not Active”.

In the case of `CC12CCC(CC1)C(C)(C)O2` [EUCALYPTOL], the IC50 result in assay [1] (platelet), in assay [2], in assay [3] (hela), in assay [4], in assay [5] (insect cells) and in assay [6] was “Not Active” throughout. In assay [2], the Ki result is on record as “Not Active”.

For the molecule `C[C@@H]1[C@H](O)[C@@H](C)/C=C/C=C/C=C/C=C/C=C/C=C/C=C/[C@H](O[C@@H]2O[C@H](C)[C@@H](O)[C@H](N)[C@@H]2O)C[C@@H]2O[C@](O)(C[C@@H](O)C[C@@H](O)[C@H](O)CC[C@@H](O)C[C@@H](O)CC(=O)O[C@H]1C)C[C@H](O)[C@H]2C(=O)O` [AMPHOTERICIN B], the IC50 result in assay [1] (platelet), in assay [2], in assay [3] (hela), in assay [4], in assay [5] (insect cells) and in assay [6] was “Not Active” each time. For the same molecule, the Ki result in assay [2] was “Not Active”.

For `Cc1cc(C(C)(C)C)c(O)c(C)c1CC1=NCCN1` [OXYMETAZOLINE], the IC50 entry in assay [1] (platelet) was “Not Active”; in assay [2] it was “Not Active”; in assay [3] (read-out: IC50) it was 1.67 µM; in assay [4], “Not Active”; in assay [5] (insect cells) it was “Not Active”; in assay [6], “Not Active”. Moreover, the figures for the Ki result in assay [2] and in assay [3] (read-out: Ki) were “Not Active” and 0.775 µM, respectively.

`CCN(CCO)CCCC(C)Nc1ccnc2cc(Cl)ccc12` (configuration not stated) [HYDROXYCHLOROQUINE]: the IC50 result in assay [1] (platelet), in assay [2], in assay [3] (hela), in assay [4], in assay [5] (insect cells) and in assay [6] was “Not Active” throughout. The Ki entry in assay [2] is on record as “Not Active”.

With `CC12CCC(CC1=O)C2(C)C` (configuration not stated) [CAMPHOR], the IC50 result in assay [1] (platelet), in assay [2], in assay [3] (hela), in assay [4], in assay [5] (insect cells) and in assay [6] was “Not Active” in each case. For the same molecule, in assay [2], the Ki result was “Not Active”.

In the case of `CCC1(c2ccccc2)C(=O)NC(=O)NC1=O` [PHENOBARBITAL], the IC50 entry in assay [1] (platelet), in assay [2], in assay [3] (hela), in assay [4], in assay [5] (insect cells) and in assay [6] was “Not Active” each time. In assay [2], the Ki result is recorded as “Not Active”.

With `C[N+](C)(C)CCOP(=O)([O-])OC[C@H](O)CO`, the IC50 entry in assay [1] (platelet), in assay [2], in assay [3] (hela), in assay [4], in assay [5] (insect cells) and in assay [6] was “Not Active” throughout. Further, in assay [2], the Ki result is “Not Active”.

`Oc1ccccc1` [PHENOL]: the half-inhibitory concentration (IC50) entry in assay [1] (platelet), in assay [2], in assay [3] (hela), in assay [4], in assay [5] (insect cells) and in assay [6] was “Not Active” in each case. Also, the Ki result in assay [2] is on record as “Not Active”.

Take `Nc1nc(F)nc2c1ncn2[C@@H]1O[C@H](CO)[C@@H](O)[C@@H]1O` [FLUDARABINE]: the IC50 entry in assay [1] (platelet), in assay [2], in assay [3] (hela), in assay [4], in assay [5] (insect cells) and in assay [6] was “Not Active” throughout. Besides, in assay [2], the Ki entry is listed as “Not Active”.

As for `c1ccc(Cn2ccnc2)cc1`, the IC50 in assay [1] (read-out: IC50) was 0.602 µM; in assay [2], “Not Active”; in assay [3] (hela), “Not Active”; in assay [4], “Not Active”; in assay [5] (insect cells) it was “Not Active”; in assay [6] it was “Not Active”. For the same molecule, in assay [2], the inhibition constant (Ki) result is “Not Active”.

Consider `Nc1nc(N)c2nc(CNc3ccc(C(=O)N[C@@H](CCC(=O)O)C(=O)O)cc3)cnc2n1` [AMINOPTERIN], for which the IC50 result in assay [1] (platelet), in assay [2], in assay [3] (hela), in assay [4], in assay [5] (insect cells) and in assay [6] was “Not Active” throughout. Also, the Ki result in assay [2] is listed as “Not Active”.

Take `C=C(Cl)Cl` [1,1-DICHLOROETHENE]: the IC50 result in assay [1] (platelet), in assay [2], in assay [3] (hela), in assay [4], in assay [5] (insect cells) and in assay [6] was “Not Active” in each case. Also, the Ki result in assay [2] is on record as “Not Active”.

`Oc1ncnc2[nH]ncc12` [ALLOPURINOL]: the IC50 entry in assay [1] (platelet), in assay [2], in assay [3] (hela), in assay [4], in assay [5] (insect cells) and in assay [6] was “Not Active” in each case. For the same molecule, the Ki result in assay [2] is listed as “Not Active”.

In the case of `O=C(O)CCc1nc(-c2ccccc2)c(-c2ccccc2)o1` [OXAPROZIN], the IC50 result in assay [1] (platelet), in assay [2], in assay [3] (hela), in assay [4], in assay [5] (insect cells) and in assay [6] was “Not Active” each time. In addition, the Ki entry in assay [2] is on record as “Not Active”.

Regarding `ClC1=C(Cl)[C@]2(Cl)[C@@H]3[C@@H]4C[C@@H]([C@H]5O[C@@H]45)[C@@H]3[C@@]1(Cl)C2(Cl)Cl` [DIELDRIN], the IC50 result in assay [1] (platelet), in assay [2], in assay [3] (hela), in assay [4], in assay [5] (insect cells) and in assay [6] was “Not Active” in each case. Also, the Ki result in assay [2] is “Not Active”.

Regarding `CC1(COc2ccc(CC3SC(=O)NC3=O)cc2)CCCCC1` (configuration not stated) [CIGLITAZONE], the IC50 result is “Not Active” in assay [1] (platelet); “Not Active” in assay [2]; “Not Active” in assay [3] (hela); “Not Active” in assay [4]; 4.66 µM in assay [5] (read-out: IC50); “Not Active” in assay [6]. In assay [2], the Ki result is “Not Active”.

For `OC[C@H]1O[C@@H]2O[C@H]3[C@H](O)[C@@H](O)[C@@H](O[C@H]4[C@H](O)[C@@H](O)[C@@H](O[C@H]5[C@H](O)[C@@H](O)[C@@H](O[C@H]6[C@H](O)[C@@H](O)[C@@H](O[C@H]7[C@H](O)[C@@H](O)[C@@H](O[C@H]8[C@H](O)[C@@H](O)[C@@H](O[C@H]1[C@H](O)[C@H]2O)O[C@@H]8CO)O[C@@H]7CO)O[C@@H]6CO)O[C@@H]5CO)O[C@@H]4CO)O[C@@H]3CO` [BETADEX], the IC50 result in assay [1] (platelet), in assay [2], in assay [3] (hela), in assay [4], in assay [5] (insect cells) and in assay [6] was “Not Active” throughout. In assay [2], the Ki entry is listed as “Not Active”.

As usually defined, the IC50 is the concentration at which inhibition is half-maximal. As usually defined, the Ki is the equilibrium dissociation constant of an inhibitor or competing ligand from its target.
